Consider 17 compounds from patent publication US4127656A, “Method of inhibiting lipogensis with 3-(benzoyl)oxiranecarboxamides” (Shell Oil Company, priority 1978, dated 1978).

In general, inhibition refers to the drop in the measured response relative to a control, in per cent.

In the first assay the test system is lipogenesis (liver). Kind of assay: inhibition of glucose incorporation into lipid in sheep liver tissue slices. The format is cell-based. Conditions: 100 micrograms per milliliter, 37° C., 2 hours. From the text: (§1) The manner in which they cause this effect is not known with certainty; it is believed that they interfere with the synthesis of fatty acids in the tissues. Their effectiveness for this purpose has been ascertained by immersing samples of animal liver or adipose tissue in a liquid medium containing radioactive glucose and the test chemical, for a period of time, then isolating the lipid from the treated tissues and determining the up-take of the radioactive carbon by means of scintillation counting techniques. These tests were conducted in both liver and adipose tissue, because in some animals the primary site of lipogenesis appears to be liver tissue, while in others it appears to be adipose tissue. The test animals were pigs, chickens and sheep.
(§2) Described in more detail, the tests were conducted according to the following general procedure: […]
(§3) The incubation was terminated by addition of 0.25 milliliter of 1 N sulfuric acid. […] The extracts were washed according to Folch et al. (J. Biol. Chem., 226, 497-509, (1957)), air dried, and counted in a liquid scintillation counter with 15 milliliters of counting fluid (two parts toluene containing 0.4% w/v New England Nuclear Omnifluor:one part Triton X-100). […] From the date obtained were calculated the percent inhibition of lipid synthesis by the test compounds in each case. […]
Turning to `NC(=O)[C@@H]1O[C@H]1C(=O)c1ccc(Cl)cc1` (relative stereo) [Compound 1, 3-(4-chlorobenzoyl)oxiranecarboxamide(trans)], the “inhibition of glucose incorporation in the liver” value is recorded as 15%.

The test system of another assay is lipogenesis (adipose tissue). Kind of assay: inhibition of glucose incorporation into lipid in sheep adipose tissue slices. Conditions: 100 micrograms per milliliter, 37° C., 2 hours. The format is cell-based.
Source text: as §1, §2, §3
With `NC(=O)[C@@H]1O[C@H]1C(=O)c1ccc(Cl)cc1` (relative stereo) [Compound 1, 3-(4-chlorobenzoyl)oxiranecarboxamide(trans)], the “inhibition of glucose incorporation in adipose tissue” value is on record as 65%.

Another assay has as its system lipogenesis (liver). The assay can be described thus: inhibition of glucose incorporation into lipid in chicken liver tissue slices. It counts as cell-based. As to conditions: 100 micrograms per milliliter, 37° C., 2 hours.
Source text: as §1, §2, §3
Take `NC(=O)[C@@H]1O[C@H]1C(=O)c1ccc(Cl)cc1` (relative stereo) [Compound 1, 3-(4-chlorobenzoyl)oxiranecarboxamide(trans)]: the “inhibition of glucose incorporation into the liver” value was 54%.

Another assay relates to lipogenesis (swine adipose tissue). Kind of assay: inhibition of lipogenesis from glucose-U-14C in pig adipose tissue slices (percent inhibition of lipid synthesis). It counts as cell-based, pig (swine). Conditions: Sus scrofa, 100 micrograms per milliliter, 37° C., 2 hours, triplicate, read-out: Percent Inhibition (of lipogenesis compared to control).
Source text: as §1
Described in more detail, the tests were conducted according to the following general procedure:
Tissue slices (200 milligrams for liver and 150 milligrams for adipose tissue) were incubated at 37° C. for 2 hours with shaking in 3 milliliters of Krebs-Ringer bicarbonate solution containing one-half the normal calcium ion concentration, 60 micromoles of glucose, 0.5 microCurie of glucose-U^14 C., 300 microunits of insulin, and 5% dimethyl sulfoxide (DMSO). The test compounds were added as a suspension in DMSO and were present at a concentration of 100 micrograms per milliliter of the incubation mixture.
The incubation was terminated by addition of 0.25 milliliter of 1 N sulfuric acid. The resulting mixture was extracted with a total of 25 milliliters of chloroform:methanol (2:1, v/v). The extracts were washed according to Folch et al. (J. Biol. Chem., 226, 497-509, (1957)), air dried, and counted in a liquid scintillation counter with 15 milliliters of counting fluid (two parts toluene containing 0.4% w/v New England Nuclear Omnifluor:one part Triton X-100). The tests were conducted in triplicate and were accompanied by control tests in which all ingredients,proportions and conditions were the same except that no test compound was included. From the date obtained were calculated the percent inhibition of lipid synthesis by the test compounds in each case.
Compound 1 was tested with respect to all of the animals. The other compounds were tested only with respect to the pig.
From these and other tests, it has been established that in pigs there is little lipogenic activity in the liver tissue. From these and other tests, it also has been established that swine adipose tissue utilizes glucose for lipogenesis, and to be the major site of fatty acid synthesis. The data obtained from the tests using adipose tissue and glucose are set out in Table 1, as the percent inhibition of lipogenesis compared to the results obtained in the control tests wherein only the test compound was omitted.
Take `NC(=O)[C@@H]1O[C@H]1C(=O)c1ccc(Cl)cc1` (relative stereo) [Compound 1, 3-(4-chlorobenzoyl)oxiranecarboxamide(trans)]: the inhibition at 100 µg/mL was 94%.
Same read-out and setting: the figure for `CN(C)C(=O)[C@@H]1O[C@H]1C(=O)c1ccc(Cl)cc1` (relative stereo) [Compound 2, 3-(4-chlorobenzoyl)-N,N-dimethyloxiranecarboxamide(trans)] is 70%; for `CNC(=O)[C@@H]1O[C@H]1C(=O)c1ccc(Cl)cc1` (relative stereo) [Compound 3, 3-(4-chlorobenzoyl)-N-methyloxiranecarboxamide(trans)] it is 96%; for `NC(=O)[C@@H]1O[C@H]1C(=O)c1ccc(Cl)c(Cl)c1` (relative stereo) [Compound 4, 3-(3,4-dichlorobenzoyl)oxiranecarboxamide(trans)] it is 96%.
The same measure, in the same setting: then `Cc1ccc(C(=O)[C@@H]2O[C@H]2C(N)=O)cc1` (relative stereo) [Compound 5, 3-(4-methylbenzoyl)oxiranecarboxamide(trans)], with 89%.
On the same count and under the same terms, the figure for `NC(=O)[C@@H]1O[C@H]1C(=O)c1ccccc1` (relative stereo) [Compound 6, 3-(benzoyl)oxiranecarboxamide(trans)] is 91%; for `CC(C)NC(=O)[C@@H]1O[C@H]1C(=O)c1ccc(Cl)cc1` (relative stereo) [Compound 7, 3-(4-chlorobenzoyl)-N-(1-methylethyl)oxiranecarboxamide(trans)] it is 90%; for `NC(=O)[C@@H]1O[C@H]1C(=O)c1cccc([N+](=O)[O-])c1` (relative stereo) [Compound 8, 3-(3-nitrobenzoyl)oxiranecarboxamide(trans)] it is 96%.
On to `C=CCNC(=O)[C@@H]1O[C@H]1C(=O)c1ccc(Cl)cc1` (relative stereo) [Compound 9, 3-(4-chlorobenzoyl)-N-(2-propenyl)oxiranecarboxamide(trans)], for which the inhibition at 100 µg/mL stood at 94%.
With `O=C(c1ccc(Cl)cc1)[C@@H]1O[C@H]1C(=O)N1CCOCC1` (relative stereo) [Compound 10, (4-chlorophenyl) (3-(4-morpholinylcarbonyl)oxiranyl)methanone(trans)], the inhibition at 100 µg/mL is 77%.
Same read-out and setting: the figure for `CC(=O)Nc1ccc(C(=O)[C@@H]2O[C@H]2C(N)=O)cc1` (relative stereo) [Compound 11, 3-(4-acetamidobenzoyl)oxiranecarboxamide(trans)] is 23%.
The same measure, in the same setting: the figure for `COc1ccc(C(=O)[C@@H]2O[C@H]2C(N)=O)cc1` (relative stereo) [Compound 12, 3-(4-methoxybenzoyl)oxiranecarboxamide(trans)] is 64%; for `C#CCNC(=O)[C@@H]1O[C@H]1C(=O)c1ccc(Cl)cc1` (relative stereo) [Compound 13, 3-(4-chlorobenzoyl)-N-(2-propynyl)oxiranecarboxamide(trans)] it is 87%; for `NC(=O)[C@@H]1O[C@H]1C(=O)c1ccc(Br)cc1` (relative stereo) [Compound 14, 3-(4-bromobenzoyl)oxiranecarboxamide(trans)] it is 90%.
Same read-out and setting: the figure for `NC(=O)[C@@H]1O[C@H]1C(=O)c1ccc(F)cc1` (relative stereo) [Compound 15, 3-(4-fluorobenzoyl)oxiranecarboxamide(trans)] is 90%; for `NC(=O)[C@@H]1O[C@H]1C(=O)c1ccc(Cl)cc1Cl` (relative stereo) [Compound 16, 3-(2,4-dichlorobenzoyl)oxiranecarboxamide(trans)] it is 91%; for `NC(=O)[C@@H]1O[C@H]1C(=O)c1cccc(C(F)(F)F)c1` (relative stereo) [Compound 17, 3-(3-(trifluoromethyl)benzoyl)oxiranecarboxamide(trans)] it is 94%.
